The results in this text go back to the Kinase Knowledgebase extract (Sharma et al. 2016).

Assay [1] addresses EGFR (Human), P00533 [T790M/L858R].
Assay [2] has as its target EGFR (human), P00533 [L858R].
Assay [3] deals with EGFR (Human), P00533 [T790M/L858R]. The following applies: baf3.
The target of assay [4] is EGFR (Human), P00533 [Assessment of EGFR-Del T790M Dependent Cell Proliferation in BaF3 Cells].
The target of a further assay is EGFR (human) (UniProt P00533).

Molecules are shown by their SMILES. Several values for one entry are separate records, joined by “and”; a condition that tells them apart may be missing. Equal entries are not always repeated.

Chain of EGFR (Human), P00533 [T790M/L858R] (P00533 whole entry T790M/L858R, looked up): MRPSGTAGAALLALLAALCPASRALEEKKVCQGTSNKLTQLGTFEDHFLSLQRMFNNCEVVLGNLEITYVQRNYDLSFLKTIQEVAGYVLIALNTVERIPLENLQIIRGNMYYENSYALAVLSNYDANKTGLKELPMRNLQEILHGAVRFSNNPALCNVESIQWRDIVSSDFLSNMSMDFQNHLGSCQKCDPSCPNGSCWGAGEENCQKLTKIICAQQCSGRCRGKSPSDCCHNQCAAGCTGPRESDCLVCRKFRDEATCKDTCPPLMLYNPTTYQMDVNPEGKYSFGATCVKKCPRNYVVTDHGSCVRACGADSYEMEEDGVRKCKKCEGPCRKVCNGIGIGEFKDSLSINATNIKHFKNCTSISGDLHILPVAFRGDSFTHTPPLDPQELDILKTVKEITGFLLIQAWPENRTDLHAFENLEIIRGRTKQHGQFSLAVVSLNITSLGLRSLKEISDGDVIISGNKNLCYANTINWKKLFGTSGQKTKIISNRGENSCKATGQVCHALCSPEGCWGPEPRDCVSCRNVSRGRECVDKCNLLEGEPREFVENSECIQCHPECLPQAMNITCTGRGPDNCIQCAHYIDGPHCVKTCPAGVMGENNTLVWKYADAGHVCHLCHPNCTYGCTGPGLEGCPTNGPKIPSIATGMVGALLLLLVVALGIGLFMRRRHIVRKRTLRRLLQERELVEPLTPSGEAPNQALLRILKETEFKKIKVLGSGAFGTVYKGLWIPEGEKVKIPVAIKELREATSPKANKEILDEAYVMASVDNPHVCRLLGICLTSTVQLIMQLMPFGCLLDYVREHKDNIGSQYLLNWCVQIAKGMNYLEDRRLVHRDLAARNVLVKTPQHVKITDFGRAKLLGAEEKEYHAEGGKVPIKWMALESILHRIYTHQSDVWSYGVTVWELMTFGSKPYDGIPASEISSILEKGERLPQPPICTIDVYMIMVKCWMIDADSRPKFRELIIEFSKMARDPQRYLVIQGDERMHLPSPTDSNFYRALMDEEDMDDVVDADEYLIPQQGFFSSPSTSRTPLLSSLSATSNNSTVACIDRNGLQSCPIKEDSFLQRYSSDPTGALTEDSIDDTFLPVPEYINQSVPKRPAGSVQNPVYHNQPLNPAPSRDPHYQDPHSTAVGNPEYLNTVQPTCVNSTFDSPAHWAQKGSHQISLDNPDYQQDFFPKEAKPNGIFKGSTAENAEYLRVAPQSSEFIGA
Chain of EGFR (human) (P00533 whole entry, looked up): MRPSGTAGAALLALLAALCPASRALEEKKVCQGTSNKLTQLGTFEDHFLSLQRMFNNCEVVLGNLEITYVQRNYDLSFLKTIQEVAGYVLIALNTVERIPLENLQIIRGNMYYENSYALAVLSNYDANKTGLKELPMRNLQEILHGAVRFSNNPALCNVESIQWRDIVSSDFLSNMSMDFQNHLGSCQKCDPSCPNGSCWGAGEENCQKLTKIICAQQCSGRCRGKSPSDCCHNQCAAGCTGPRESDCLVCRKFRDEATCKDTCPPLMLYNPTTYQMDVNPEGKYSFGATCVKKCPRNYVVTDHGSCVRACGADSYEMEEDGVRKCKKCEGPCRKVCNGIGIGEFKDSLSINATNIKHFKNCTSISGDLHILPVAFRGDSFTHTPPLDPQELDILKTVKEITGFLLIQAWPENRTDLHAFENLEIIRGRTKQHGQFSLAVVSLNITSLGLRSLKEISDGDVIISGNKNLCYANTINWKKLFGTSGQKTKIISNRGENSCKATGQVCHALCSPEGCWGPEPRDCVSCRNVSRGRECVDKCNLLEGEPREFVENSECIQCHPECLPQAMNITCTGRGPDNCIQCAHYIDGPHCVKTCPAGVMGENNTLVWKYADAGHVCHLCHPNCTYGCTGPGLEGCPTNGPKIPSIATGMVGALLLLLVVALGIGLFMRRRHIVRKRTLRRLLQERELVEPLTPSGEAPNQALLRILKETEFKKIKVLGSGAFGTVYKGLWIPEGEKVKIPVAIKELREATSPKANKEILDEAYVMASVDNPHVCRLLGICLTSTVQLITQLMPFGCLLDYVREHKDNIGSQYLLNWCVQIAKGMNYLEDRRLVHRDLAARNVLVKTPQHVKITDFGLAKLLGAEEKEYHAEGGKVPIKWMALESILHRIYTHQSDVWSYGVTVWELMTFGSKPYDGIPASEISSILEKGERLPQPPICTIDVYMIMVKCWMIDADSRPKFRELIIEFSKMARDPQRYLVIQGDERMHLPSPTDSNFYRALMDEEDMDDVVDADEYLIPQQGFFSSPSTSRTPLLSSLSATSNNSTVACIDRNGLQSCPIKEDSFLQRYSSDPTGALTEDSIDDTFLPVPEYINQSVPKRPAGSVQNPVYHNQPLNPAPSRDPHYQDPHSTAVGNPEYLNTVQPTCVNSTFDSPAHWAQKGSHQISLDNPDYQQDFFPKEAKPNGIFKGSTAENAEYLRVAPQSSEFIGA
Chain of EGFR (Human), P00533 [Assessment of EGFR-Del T790M Dependent Cell Proliferation in BaF3 Cells] (P00533 whole entry, looked up, stated change not applied): as the sequence (P00533 whole entry, looked up) above
Chain of EGFR (human), P00533 [L858R] (P00533 whole entry L858R, looked up): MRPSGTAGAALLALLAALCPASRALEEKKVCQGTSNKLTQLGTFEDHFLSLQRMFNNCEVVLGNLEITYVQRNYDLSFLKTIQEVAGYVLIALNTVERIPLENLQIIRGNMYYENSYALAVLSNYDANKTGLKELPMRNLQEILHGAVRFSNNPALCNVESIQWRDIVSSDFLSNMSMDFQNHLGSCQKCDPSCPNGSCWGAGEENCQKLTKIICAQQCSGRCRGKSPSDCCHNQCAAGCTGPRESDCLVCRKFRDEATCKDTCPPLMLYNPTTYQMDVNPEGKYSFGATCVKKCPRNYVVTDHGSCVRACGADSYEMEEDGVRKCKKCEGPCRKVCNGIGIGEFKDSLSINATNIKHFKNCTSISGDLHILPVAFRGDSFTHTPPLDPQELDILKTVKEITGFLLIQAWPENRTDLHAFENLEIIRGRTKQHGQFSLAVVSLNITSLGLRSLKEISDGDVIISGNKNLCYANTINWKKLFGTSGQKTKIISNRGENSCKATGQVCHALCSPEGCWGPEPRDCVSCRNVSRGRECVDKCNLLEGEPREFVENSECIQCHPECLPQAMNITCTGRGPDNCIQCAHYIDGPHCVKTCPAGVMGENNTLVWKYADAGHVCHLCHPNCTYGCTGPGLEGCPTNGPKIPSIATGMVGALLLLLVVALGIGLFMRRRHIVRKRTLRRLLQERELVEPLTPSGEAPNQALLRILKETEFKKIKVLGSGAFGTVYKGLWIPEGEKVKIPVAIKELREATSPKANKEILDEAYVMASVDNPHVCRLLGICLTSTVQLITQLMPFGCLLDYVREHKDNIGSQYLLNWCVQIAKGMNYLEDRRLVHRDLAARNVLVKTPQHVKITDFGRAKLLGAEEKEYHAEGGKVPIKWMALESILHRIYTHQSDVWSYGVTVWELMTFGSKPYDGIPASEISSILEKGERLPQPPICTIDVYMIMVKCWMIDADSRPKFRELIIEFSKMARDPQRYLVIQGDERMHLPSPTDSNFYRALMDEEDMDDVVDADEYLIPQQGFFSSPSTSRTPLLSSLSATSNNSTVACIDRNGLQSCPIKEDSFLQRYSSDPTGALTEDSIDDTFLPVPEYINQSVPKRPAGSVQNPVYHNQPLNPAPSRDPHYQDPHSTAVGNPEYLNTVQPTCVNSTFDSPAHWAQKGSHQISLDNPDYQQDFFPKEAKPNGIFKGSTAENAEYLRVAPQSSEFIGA

As to `C=C(CN1CCS(=O)(=O)CC1)C(=O)Nc1ccc(OC)c(Nc2ncc(Cl)c(Nc3ccccc3P(C)(C)=O)n2)c1`, the IC50 (usually the concentration that gives 50% inhibition) in assay [1] was below 50 nM; in assay [2] it was 50 to 100 nM.

In the case of `COc1ccc(NC(=O)/C=C\C(=O)NCCN(C)C)cc1Nc1ncc(Cl)c(Nc2ccccc2P(C)(C)=O)n1`, the half-maximal inhibitory concentration (IC50) in assay [1] and in assay [2] was below 50 nM throughout.

Turning to `CC#CC(=O)Nc1cc(Nc2ncc(Cl)c(Nc3ccccc3P(C)(C)=O)n2)c(OC)cc1OCC1CCOCC1`, the IC50 in assay [3] was 50 to 100 nM; in assay [4], below 50 nM; in assay [2] it was 101 to 250 nM.

Turning to `C=C(CN1CCNC(=O)C1)C(=O)Nc1ccc(OC)c(Nc2ncc(Cl)c(Nc3ccccc3P(C)(C)=O)n2)c1`, the half-inhibitory concentration (IC50) is below 50 nM in assay [1], 101 to 250 nM in assay [4], below 50 nM on EGFR (human) and below 50 nM in assay [2].

As for `C=C(F)C(=O)Nc1ccc(OC)c(Nc2ncc(Cl)c(Nc3ccccc3P(C)(C)=O)n2)c1`, the IC50 in assay [1] is 50 to 100 nM; in assay [3], 50 to 100 nM; in assay [4], below 50 nM; in assay [2], below 50 nM.

Turning to `C=CC(=O)Nc1cc(Nc2ncc(Cl)c(Nc3ccccc3P(C)(C)=O)n2)c(OC)cc1C#CC1(N(C)C)CC1`, the IC50 in assay [1] was below 50 nM; in assay [3], 101 to 250 nM; in assay [4] it was 101 to 250 nM; in assay [2] it was below 50 nM.

As to `CC#CC(=O)Nc1cc(Nc2ncc(Cl)c(Nc3ccccc3P(C)(C)=O)n2)c(OC)cc1OCCN1CCCC1`, the half-maximal inhibitory concentration (IC50) in assay [1] was below 50 nM; in assay [3], 101 to 250 nM; in assay [4] it was below 50 nM; in assay [2] it was below 50 nM.

`C=CC(=O)Nc1ccc(OC)c(Nc2cc(Nc3ccccc3P(C)(C)=O)ncn2)c1`: the IC50 is 101 to 250 nM in assay [1], 50 to 100 nM on EGFR (human) and below 50 nM in assay [2].

Turning to `C=CC(=O)Nc1cc(Nc2ncc(Cl)c(Nc3ccccc3P(C)(C)=O)n2)c(OC)cc1CCN1CCN(C)CC1`, the IC50 in assay [1] is below 50 nM; in assay [4], 101 to 250 nM; against EGFR (human), below 50 nM; in assay [2], below 50 nM.

As for `COc1ccc(NC(=O)C#Cc2ccccc2)cc1Nc1ncc(Cl)c(Nc2ccccc2P(C)(C)=O)n1`, the IC50 in assay [1], in assay [3], in assay [4] and in assay [2] was below 50 nM in each case.

`COc1ccc(NC(=O)CF)cc1Nc1ncc(Cl)c(Nc2ccccc2P(C)(C)=O)n1`: the IC50 is 101 to 250 nM in assay [1] and 50 to 100 nM in assay [2].

Take `COc1ccc(NC(=O)/C=C/C2(N)CC2)cc1Nc1ncc(Cl)c(Nc2ccccc2P(C)(C)=O)n1`: the values for the half-maximal inhibitory concentration (IC50) (in assay [1]; at EGFR (human); in assay [2]) were below 50 nM, 101 to 250 nM and below 50 nM, respectively.

For the molecule `C=CC(=O)Nc1cc(Nc2ncc(Cl)c(Nc3ccccc3P(C)(C)=O)n2)c(OC)cc1N1CCC(N2CCN(C)CC2)CC1`, the IC50 is below 50 nM in assay [1]; 50 to 100 nM and < 50 nM in assay [3]; 50 to 100 nM and < 50 nM in assay [4]; below 50 nM against EGFR (human).

Consider `C=CC(=O)Nc1cc(Nc2ncc(Cl)c(Nc3ccccc3P(C)(C)=O)n2)c(OC)cc1OC1COC1`, for which the IC50 in assay [1] is below 50 nM; in assay [3] it was 50 to 100 nM; in assay [4], below 50 nM; in assay [2], below 50 nM.

For the molecule `CNC(=O)/C=C/C(=O)Nc1ccc(OC)c(Nc2ncc(Cl)c(Nc3ccccc3P(C)(C)=O)n2)c1`, the IC50 in assay [1] is below 50 nM; in assay [3], 101 to 250 nM; in assay [4], 50 to 100 nM; in assay [2], below 50 nM.

For `C=CC(=O)Nc1cc(Nc2ncc(Cl)c(Nc3ccccc3P(C)(C)=O)n2)c(OC)cc1N1CCC(N)C1` (stereo not drawn), the half-maximal inhibitory concentration (IC50) (in assay [1]; against EGFR (human); in assay [2]) was below 50 nM each time.

In the case of `C=CC(=O)Nc1cc(Nc2ncc(Cl)c(Nc3ccccc3P(C)(C)=O)n2)c(OC)cc1OCC1CCCN1C` (stereo not drawn), the half-maximal inhibitory concentration (IC50) in assay [3] and in assay [4] was below 50 nM throughout.

Regarding `COc1ccc(NC(=O)/C=C\C(=O)O)cc1Nc1ncc(Cl)c(Nc2ccccc2P(C)(C)=O)n1`, the IC50 in assay [1] is 101 to 250 nM.

For `C=CC(=O)Nc1cc(Nc2ncc(Cl)c(Nc3ccccc3P(C)(C)=O)n2)c(OC)cc1OCC1CCOCC1`, the 50% inhibitory concentration (IC50) was 50 to 100 nM in assay [1], 101 to 250 nM in assay [3], 50 to 100 nM in assay [4] and below 50 nM in assay [2].

Regarding `CNC(=O)/C=C\C(=O)Nc1ccc(OC)c(Nc2ncc(Cl)c(Nc3ccccc3P(C)(C)=O)n2)c1`, the IC50 in assay [1] is below 50 nM; in assay [3] it was 101 to 250 nM; in assay [4] it was below 50 nM; in assay [2], below 50 nM.

Take `C=CC(=O)Nc1cc(Nc2ncc(Cl)c(Nc3ccccc3P(C)(C)=O)n2)c(OC)cc1C(=O)N1CCN(C)CC1`: the IC50 in assay [1] is below 50 nM; on EGFR (human), 101 to 250 nM; in assay [2], below 50 nM.

For `C=CC(=O)Nc1cc(Cc2ncc(Cl)c(Nc3ccccc3P(C)(C)=O)n2)c(OC)cc1C#CCN1CCC(N(C)C)C1` (stereo not drawn), the values for the IC50 (in assay [1]; against EGFR (human); in assay [2]) were below 50 nM, 50 to 100 nM and below 50 nM, respectively.

On to `C=CC(=O)Nc1ccc(OC)c(Nc2ncc(C#N)c(Nc3ccccc3P(C)(C)=O)n2)c1`, for which the IC50 in assay [1] was below 50 nM; in assay [4], 101 to 250 nM; at EGFR (human), below 50 nM; in assay [2] it was below 50 nM.

The molecule `C=CC(=O)Nc1cc(Nc2ncc(Cl)c(Nc3ccccc3P(C)(C)=O)n2)c(OC)cc1OCC(CO)N(C)C` (stereo not drawn) came in with an IC50 in assay [4] of 101 to 250 nM.

For `C=CC(=O)Nc1cc(Nc2ncc(Cl)c(Nc3ccccc3P(C)(C)=O)n2)c(OC)cc1OC1CN(C)C1`, the 50% inhibitory concentration (IC50) in assay [3] was 101 to 250 nM; in assay [4] it was 50 to 100 nM.

Turning to `COc1ccc(NC(=O)/C=C/CN2CCCC2)cc1Nc1ncc(Cl)c(Nc2ccccc2P(C)(C)=O)n1`, the half-inhibitory concentration (IC50) was below 50 nM in assay [1], 50 to 100 nM in assay [4] and below 50 nM in assay [2].

`COc1ccc(NC(=O)/C=C/C(=O)N(C)C)cc1Nc1ncc(Cl)c(Nc2ccccc2P(C)(C)=O)n1`: the IC50 is 101 to 250 nM in assay [1] and 50 to 100 nM in assay [2].

As for `COc1ccc(NC(=O)C2=CCCN(C)C2)cc1Nc1ncc(Cl)c(Nc2ccccc2P(C)(C)=O)n1`, the IC50 in assay [1] and in assay [2] was below 50 nM throughout.

Regarding `C=CC(=O)Nc1cc(Nc2ncc(Cl)c(Nc3ccccc3P(C)(C)=O)n2)c(OC)cc1OCCN1CCN(C)CC1`, the IC50 is below 50 nM in assay [1], 101 to 250 nM against EGFR (human) and below 50 nM in assay [2].

For the molecule `C=CC(=O)Nc1cc(Cc2ncc(Cl)c(Nc3ccccc3P(C)(C)=O)n2)c(OC)cc1C#CCN(C)C(C)(C)C`, the IC50 (in assay [1]; against EGFR (human); in assay [2]) was below 50 nM in each case.

In assay [2], `COc1ccc(NC(=O)/C=C\C(=O)N2CCN(C)CC2)cc1Nc1ncc(Cl)c(Nc2ccccc2P(C)(C)=O)n1` yielded a concentration for half-maximal inhibition (IC50) of 101 to 250 nM.

Take `COc1cc(P(C)(C)=O)ccc1Nc1ncc(Cl)c(Oc2cccc(NC(=O)C#CCN(C)C)c2)n1`: the half-maximal inhibitory concentration (IC50) in assay [1] is below 50 nM; in assay [4] it was 101 to 250 nM; against EGFR (human), below 50 nM; in assay [2] it was below 50 nM.

Regarding `C=CC(=O)Nc1cc(Nc2ncc(Cl)c(Nc3ccccc3P(C)(C)=O)n2)c(OC)cc1C#CCN(CC)CC`, the concentration for half-maximal inhibition (IC50) in assay [1], in assay [3], in assay [4] and in assay [2] was below 50 nM throughout.

Regarding `C=CC(=O)Nc1cc(Nc2ncc(Cl)c(Nc3ccccc3P(C)(C)=O)n2)c(OC)cc1N1CCC(N2CCN(CCO)CC2)C1` (stereo not drawn), the IC50 (in assay [1]; at EGFR (human); in assay [2]) was below 50 nM each time.

`CC#CC(=O)Nc1cc(Nc2ncc(Cl)c(Nc3ccccc3P(C)(C)=O)n2)c(OC)cc1OC1COC1`: the IC50 in assay [1] was 50 to 100 nM; in assay [3], 50 to 100 nM; in assay [4], below 50 nM; in assay [2] it was below 50 nM.

In turn, `C=CC(=O)N1CCc2cc(Nc3ncc(Cl)c(Nc4ccccc4P(C)(C)=O)n3)c(OC)cc21` had an IC50 in assay [4] of 101 to 250 nM.

`C=C(C(=O)Nc1ccc(OC)c(Nc2ncc(Cl)c(Nc3ccccc3P(C)(C)=O)n2)c1)C(F)(F)F`: the IC50 (in assay [1]; at EGFR (human); in assay [2]) was below 50 nM each time.

For `COc1ccc(NC(=O)/C=C/C(=O)NCCN(C)C)cc1Nc1ncc(Cl)c(Nc2ccccc2P(C)(C)=O)n1`, the IC50 (in assay [1]; at EGFR (human); in assay [2]) was below 50 nM in each case.

`C=CC(=O)Nc1cc(Cc2ncc(Cl)c(Nc3ccccc3P(C)(C)=O)n2)c(OC)cc1C#CCN1CCC(C)CC1`: the IC50 (in assay [1]; against EGFR (human); in assay [2]) was below 50 nM throughout.

`C=CC(=O)Nc1ccc(F)c(Nc2ncc(Cl)c(Nc3ccccc3P(C)(C)=O)n2)c1`: the IC50 in assay [3] and in assay [4] was below 50 nM in each case.

Turning to `COc1ccc(NC(=O)/C=C/C(=O)N2CCN(C)CC2)cc1Nc1ncc(Cl)c(Nc2ccccc2P(C)(C)=O)n1`, the concentration for half-maximal inhibition (IC50) in assay [1] is below 50 nM; in assay [4], 101 to 250 nM; at EGFR (human) it was below 50 nM; in assay [2], below 50 nM.

As for `C=CC(=O)Nc1cc(Nc2ncc(Cl)c(Nc3ccccc3P(C)(C)=O)n2)c(OC)cc1N1CCC(N2CCC(O)C2)C1` (stereo not drawn), the IC50 in assay [1] was below 50 nM; in assay [4], 101 to 250 nM; at EGFR (human), below 50 nM; in assay [2] it was below 50 nM.

Take `C=CC(=O)Nc1cc(Nc2ncc(Cl)c(Nc3ccccc3P(C)(C)=O)n2)c(OC)cc1OCC1CCN(C)CC1`: the IC50 in assay [1] was below 50 nM; in assay [4] it was 101 to 250 nM; against EGFR (human), 50 to 100 nM; in assay [2], below 50 nM.

In the case of `C=CC(=O)Nc1cc(Nc2ncc(Cl)c(Nc3ccccc3P(C)(C)=O)n2)c(OC)cc1N1CCC(N2CCC(O)CC2)C1` (stereo not drawn), the 50% inhibitory concentration (IC50) in assay [1] is below 50 nM; in assay [4], 101 to 250 nM; on EGFR (human), below 50 nM; in assay [2], below 50 nM.

For the molecule `C=CC(=O)Nc1ccc(OC)c(Nc2ncc(Cl)c(Nc3ccccc3P(C)(C)=O)n2)c1`, the half-inhibitory concentration (IC50) in assay [1] is below 50 nM; in assay [4], 101 to 250 nM; in assay [2] it was below 50 nM.
